The values that follow come from ChEMBL document CHEMBL1201862, “PubChem BioAssay data set” (2004).

The target in one experiment is Melanocortin receptor 4 (Homo sapiens, UniProt P32245). In words: inhibitors of MC4R cAMP signaling – cell-based, TR-FRET, biased antagonists, dose response (AID 602298).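 Further: antagonist potency against agonist-stimulated cAMP production.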 The experiment is classed as functional. In general terms: TR-FRET usually uses a lanthanide donor and a delayed reading to cut background.
The nature of experiment [1]: cAMP pathway inhibition in counterscreen cell line – TR-FRET cAMP detection, counter-screen for MC4R biased antagonist project, dose response (AID 602305).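 Further: U2OS cells stimulated with forskolin near its EC80 as the cAMP inducer; potency is for inhibition of forskolin-stimulated cAMP signaling.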 In kind it is functional, cell-based.
In experiment [2] the target is Neuropeptides B/W receptor type 1 (Homo sapiens, UniProt P48145). In words: human NPBW1 receptor blockade, IC50 – cell-based, fluorescence, dose response, set 5, late-stage follow-up (AID 588566). The experiment is classed as functional.
The target of experiment [3] is Melanin-concentrating hormone receptor 1 (Homo sapiens, UniProt Q99705). Description: Late-stage fluorescence-based counterscreen for antagonists of the G-protein coupled receptor 7 (GPR7): cell-based dose response assay to identify antagonists of the melanin-concentrating hormone receptor 1 (MCHR1) Set 5. The experiment is classed as functional. (A counterscreen serves to expose hits that act by an unwanted route or on another target.)

Experiment [4] in a line: Late-stage results from the probe development effort to identify antagonists of the G-protein coupled receptor 7 (GPR7): luminescence-based cell-based dose response counterscreen assay to determine cytotoxicity of antagonist compounds Set 3. In kind it is functional.
For experiment [5], the target named is T1, High affinity choline transporter 1 (Homo sapiens, UniProt Q9GZV3).
T1 sequence (Q9GZV3 whole entry): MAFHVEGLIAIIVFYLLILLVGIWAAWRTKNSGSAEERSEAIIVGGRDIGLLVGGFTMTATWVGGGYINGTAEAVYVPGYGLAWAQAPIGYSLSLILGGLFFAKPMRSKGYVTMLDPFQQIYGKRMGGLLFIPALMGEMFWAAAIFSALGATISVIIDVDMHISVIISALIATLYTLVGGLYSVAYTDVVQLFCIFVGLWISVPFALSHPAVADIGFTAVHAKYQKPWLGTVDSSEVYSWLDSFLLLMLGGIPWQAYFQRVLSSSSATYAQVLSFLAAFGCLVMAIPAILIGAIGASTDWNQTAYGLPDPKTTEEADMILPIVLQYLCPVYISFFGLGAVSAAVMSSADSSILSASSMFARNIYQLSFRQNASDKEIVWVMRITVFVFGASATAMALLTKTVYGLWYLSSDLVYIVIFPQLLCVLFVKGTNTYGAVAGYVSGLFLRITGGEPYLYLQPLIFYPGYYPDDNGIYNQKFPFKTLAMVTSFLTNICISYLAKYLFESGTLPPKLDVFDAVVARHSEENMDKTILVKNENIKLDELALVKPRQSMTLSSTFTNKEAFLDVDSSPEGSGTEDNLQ
Description: human choline transporter potentiators, potency – cell-based, 10-point CRC, membrane potential dye, dose response (AID 602376). The experiment is classed as functional.

Experiment [6] can be described thus: microbe, parasite or virus in culture. The experiment is classed as functional. As to conditions: Mycobacterium tuberculosis.
Experiment [7] in a line: Trypanosoma cruzi growth suppression in host cells – NIH3T3 host cells, beta-gal luminescence, confirmation (AID 2044).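 Further: intracellular parasites grown in NIH/3T3 mouse fibroblasts as host cells; luminescent beta-galactosidase reporter signal from transgenic T. cruzi replicating inside host cells; inhibitors lower the luminescence signal.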 The experiment is classed as functional, cell-based.
The nature of experiment [8]: NIH3T3 cell viability loss – ATP luminescence, mouse fibroblasts, counter-screen, dose response (AID 2010).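 Further: cells exposed to compound for about 90 hours before reading.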 In kind it is functional, cell-based.
In experiment [9] the target is Protein kinase C zeta type (Homo sapiens, UniProt Q05513). The experiment is classed as functional.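 Further: measured as one member of a broad kinase profiling panel.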
For experiment [10], the target named is G protein-coupled receptor kinase 5 (Homo sapiens, UniProt P34947). In words: Navigating the Kinome. Panel member name: GPRK5. The experiment is classed as functional.
Experiment [11] deals with MAP kinase-activated protein kinase 3 (Homo sapiens, UniProt Q16644). The experiment is classed as functional.
Experiment [12] deals with Protein kinase C gamma type (Homo sapiens, UniProt P05129). In kind it is functional.

The structures appear in SMILES notation. Activity calls are given as the source filed them.

Chain of MAP kinase-activated protein kinase 3 (Q16644 whole entry): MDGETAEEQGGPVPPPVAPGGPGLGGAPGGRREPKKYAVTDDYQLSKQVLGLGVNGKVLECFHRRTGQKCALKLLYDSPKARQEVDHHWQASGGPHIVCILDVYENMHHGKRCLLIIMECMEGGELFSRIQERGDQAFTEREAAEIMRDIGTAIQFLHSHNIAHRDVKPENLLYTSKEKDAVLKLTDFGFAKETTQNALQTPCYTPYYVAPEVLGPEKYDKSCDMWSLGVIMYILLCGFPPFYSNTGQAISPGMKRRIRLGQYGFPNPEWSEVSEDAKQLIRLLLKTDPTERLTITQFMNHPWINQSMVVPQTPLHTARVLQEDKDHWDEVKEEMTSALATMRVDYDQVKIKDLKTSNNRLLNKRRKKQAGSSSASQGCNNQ
Chain of G protein-coupled receptor kinase 5 (P34947 whole entry): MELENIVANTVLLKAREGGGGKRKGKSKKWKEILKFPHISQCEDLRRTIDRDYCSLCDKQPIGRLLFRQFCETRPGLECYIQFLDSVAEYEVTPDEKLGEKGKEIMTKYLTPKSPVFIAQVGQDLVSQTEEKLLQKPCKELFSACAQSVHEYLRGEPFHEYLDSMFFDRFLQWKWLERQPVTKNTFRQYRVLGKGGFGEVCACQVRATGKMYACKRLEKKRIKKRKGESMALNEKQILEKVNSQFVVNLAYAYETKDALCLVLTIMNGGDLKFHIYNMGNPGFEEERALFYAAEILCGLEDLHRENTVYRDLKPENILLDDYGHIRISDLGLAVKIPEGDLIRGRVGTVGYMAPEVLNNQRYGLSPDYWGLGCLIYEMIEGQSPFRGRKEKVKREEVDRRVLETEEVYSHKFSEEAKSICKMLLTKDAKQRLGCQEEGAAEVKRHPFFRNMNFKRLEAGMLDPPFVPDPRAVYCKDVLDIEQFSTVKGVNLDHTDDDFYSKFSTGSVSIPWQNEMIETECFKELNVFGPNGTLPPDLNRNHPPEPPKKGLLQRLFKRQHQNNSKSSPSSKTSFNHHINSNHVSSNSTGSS
Chain of Protein kinase C zeta type (Q05513 whole entry): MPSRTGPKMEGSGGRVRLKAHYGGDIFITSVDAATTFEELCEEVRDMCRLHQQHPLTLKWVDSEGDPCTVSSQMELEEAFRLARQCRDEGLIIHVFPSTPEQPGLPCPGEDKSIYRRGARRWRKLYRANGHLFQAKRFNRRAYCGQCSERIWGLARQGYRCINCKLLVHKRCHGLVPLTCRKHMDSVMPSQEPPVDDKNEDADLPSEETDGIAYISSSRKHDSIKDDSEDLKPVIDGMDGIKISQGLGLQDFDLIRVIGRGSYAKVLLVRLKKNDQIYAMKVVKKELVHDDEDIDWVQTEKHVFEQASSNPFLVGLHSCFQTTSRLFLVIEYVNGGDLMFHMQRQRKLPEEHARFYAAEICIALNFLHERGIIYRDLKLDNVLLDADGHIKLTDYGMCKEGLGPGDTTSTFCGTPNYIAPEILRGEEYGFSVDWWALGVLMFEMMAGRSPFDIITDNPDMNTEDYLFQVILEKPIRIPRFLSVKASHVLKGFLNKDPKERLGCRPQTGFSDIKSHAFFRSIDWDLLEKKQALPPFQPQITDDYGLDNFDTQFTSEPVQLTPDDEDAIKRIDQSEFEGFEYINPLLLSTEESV
Chain of Melanocortin receptor 4 (P32245 whole entry): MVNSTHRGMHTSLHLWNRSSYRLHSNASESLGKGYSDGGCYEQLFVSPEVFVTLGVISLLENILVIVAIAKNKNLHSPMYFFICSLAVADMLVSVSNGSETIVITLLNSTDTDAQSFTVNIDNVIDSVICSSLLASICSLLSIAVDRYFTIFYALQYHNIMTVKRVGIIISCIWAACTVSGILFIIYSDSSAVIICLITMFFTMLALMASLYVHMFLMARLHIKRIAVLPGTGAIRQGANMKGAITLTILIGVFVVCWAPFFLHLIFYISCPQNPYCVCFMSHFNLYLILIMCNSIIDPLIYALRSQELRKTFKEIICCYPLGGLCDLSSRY
Chain of Neuropeptides B/W receptor type 1 (P48145 whole entry): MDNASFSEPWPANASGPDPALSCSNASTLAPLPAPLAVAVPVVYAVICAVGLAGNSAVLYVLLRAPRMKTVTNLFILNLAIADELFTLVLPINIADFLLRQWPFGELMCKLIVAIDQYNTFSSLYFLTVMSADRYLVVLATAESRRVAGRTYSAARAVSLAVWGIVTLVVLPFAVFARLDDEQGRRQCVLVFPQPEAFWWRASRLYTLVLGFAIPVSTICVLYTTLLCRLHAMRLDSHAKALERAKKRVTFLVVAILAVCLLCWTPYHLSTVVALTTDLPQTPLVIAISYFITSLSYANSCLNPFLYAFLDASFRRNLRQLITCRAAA
Chain of Melanin-concentrating hormone receptor 1 (Q99705 whole entry): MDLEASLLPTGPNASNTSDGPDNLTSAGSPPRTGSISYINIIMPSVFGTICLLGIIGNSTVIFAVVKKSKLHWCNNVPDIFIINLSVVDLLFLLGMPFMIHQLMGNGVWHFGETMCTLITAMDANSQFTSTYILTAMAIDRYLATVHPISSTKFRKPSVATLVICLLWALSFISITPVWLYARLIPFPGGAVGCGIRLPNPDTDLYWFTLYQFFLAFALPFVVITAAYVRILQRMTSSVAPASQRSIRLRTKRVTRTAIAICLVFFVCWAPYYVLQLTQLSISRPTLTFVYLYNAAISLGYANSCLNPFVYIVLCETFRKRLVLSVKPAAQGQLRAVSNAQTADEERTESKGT

In the case of `CC(=O)Oc1ccc2nc(-c3ccco3)oc(=O)c2c1`, the IC50 (on Melanocortin receptor 4; in [1]) was > 64.6 µM (inactive) in each case.

Turning to `CS(=O)(=O)c1ccc(Oc2c(Cl)cnn(Cc3cccc4ccccc34)c2=O)cc1`, the IC50 in experiment [2] is 1.13 µM (active); in experiment [3], 2.46 µM (active).

For `COc1ccc(Oc2c(Cl)cnn(C3c4ccccc4-c4ccccc43)c2=O)cc1`, the CC50 in [4] was > 20 µM (inactive).

Consider `Cc1ccc(-n2c(C)cc(/C=N/NC(N)=S)c2C)cc1`, for which the EC50 is 9.06 µM (active) in experiment [5], 0.315 µM (active) in experiment [7] and > 60 µM (inconclusive) in experiment [8]. Moreover, the CC50 in experiment [6] was > 40 µM (active).

With `CCN(CCO)CCCOc1ccc2c(Nc3cc(CC(=O)Nc4cccc(F)c4)[nH]n3)ncnc2c1` [DEFOSBARASERTIB], the Ki is > 7.94 µM (inactive) in [9], > 3.98 µM (inactive) in experiment [10], > 10 µM (inactive) in [11] and > 7.94 µM (inactive) in experiment [12].

By IC50 is commonly meant the midpoint of a concentration-inhibition curve. As a reminder, the EC50 is the midpoint of the concentration-response curve. For orientation: Ki means a dissociation constant, usually derived from enzyme kinetics or from competition with a known ligand.
